# Test results: publication PMC10377091 (Brain Sciences, 2023)
# Where two headings read alike, the source gives them in different places.
# What was measured:
# [1] = test system: hiPS-BCECs; assay: Cytotoxicity, CellTiter-Glo 2.0 Cell Viability Assay; settings: 1% SDS (positive control), 4 h incubation, luminescence; mean ± SEM
# Description: Cytotoxicity of phoenixin-14 against hiPS-BCECs was evaluated for three concentrations (1, 10, and 100 nMol) after 4 h incubation with untreated (negative control) and 1% Sodium Dodecyl Sulfate (SDS, Carl Roth, Karlsruhe, Germany)-treated (positive control) hiPS-BCECs as controls. After treatment, a CellTiter-Glo® 2.0 Cell Viability Assay (Promega, Mannheim, Germany) was performed according to the manufacturer’s instructions. Luminescence was measured with an Infinite M200 fluorescence reader (Tecan Group, Männedorf, Switzerland).
# Cytotoxicity studies were performed in triplicate and three independent biological replicates. Transport studies were performed in duplicate and repeated three times. […] When feasible based on the number of values, data were tested for normality using the Kolmogorov–Smirnov test; otherwise, they were assumed to be non-normally distributed. Results from the toxicity studies were analyzed using Kruskal–Wallis test and significance values were adjusted according to Bonferroni correction regarding multiple testing. To compare the results of the transport studies, an unpaired t-test was applied. Data are presented as mean ± SEM. The level of significance was defined as p < 0.05 (*).
# [2] = test system: hiPSC-BCECs (brain capillary-like endothelial cells derived from human induced-pluripotent stem cells); assay: Transport assay across hiPSC-derived BBB mono-culture model (hiPS-BCEC); type: in vitro ADME; settings: for clearance value: mean ± SEM; for permeability coefficient (PC): apical to basolateral, 4 h, 37 °C, ELISA
# Description: Human induced-pluripotent stem cells (hiPSC; IMR90-4, WiCell Research Institute, Madison, WI, USA) were cultured in mTeSRTM1 medium (StemCell Technologies, Vancouver, BC, Canada). The hiPSC-derived brain capillary-like endothelial cell (hiPS-BCEC) BBB model was built as previously described. In brief, using Accutase® solution (Sigma-Aldrich, Saint Louis, MO, USA), hiPSCs were dissociated into single cells and seeded in mTeSRTM1 medium (StemCell Technologies Inc.) including […]-27632 dihydrochloride (Tocris, Bristol, UK) on Matrigel® Growth Factor Reduced (GFR) Basement Membrane Matrix, Phenol Red-free (Corning, Corning, NY, USA) coated 6-well plates at a density of 7.5 × 103 hiPSC/cm^2. […] For the next two days, cells were treated with EC++ medium, consisting of human endothelial-[…], Thermo Fisher Scientific) supplemented with 200 × diluted serum-free B-27TM supplement (Thermo Fisher Scientific), 20 ng/mL hbFGF (PeproTech, Cranbury, NJ, USA), and 10 μM all-trans RA (Sigma-Aldrich). No medium change occurred on day 7. Using Accutase®, cells were seeded in EC++ medium at a density of 1 × 106 hiPSC/cm^2 onto 24-well ThinCert® cell culture inserts, with a pore size of 0.4 μm (Greiner BioOne, Frickenhausen, Germany), coated with 400 μg/mL collagen IV (Sigma-Aldrich) and supplemented with 100 μg/mL fibronectin (Thermo Fisher Scientific). Cells were cultured in EC++ medium for 24 h, followed by treatment with EC medium ([…] hbFGF and RA) for another 24 h, yielding purified hiPS-BCECs. Transport assays were performed in cell culture inserts (24-well format) on an orbital shaker (Edmund Buhler GmbH, Bodelshausen, Germany) at 100 rpm, 37 °C, 95% humidity, and 5% CO2. […] Stock solutions of commercially purchased phoenixin-14 (079-01, Phoenix Pharmaceuticals, Inc., Karlsruhe, Germany,) were diluted with EC medium to the desired concentrations (1 nMol or 10 nMol). In total, 200 μL of the final concentrations of phoenixin-14 were applied to the apical side of the BBB model. The basolateral side was supplied with 800 μL of EC medium. The transport was evaluated with a total incubation time of 4 h. Half-hourly, the basolateral medium was collected and replaced with fresh EC medium. As a control, the substances were incubated on empty collagen IV-/fibronectin-coated inserts to exclude major phoenixin-14 adsorption on the membrane. […] The concentration of phoenixin-14 in the apical and basolateral compartment was measured using a commercially purchased ELISA Kit (EK-079-01, Phoenix Pharmaceuticals). The intra-assay variability was 9.7%. The sensitivity for phoenixin was 0.07 ng/mL, while the linear detection ranged from 0.36 to 3.26 ng/mL (Phoenix Pharmaceuticals). […] Data are presented as mean ± SEM.
# [3] = test system: hiPSC-BCECs (brain capillary-like endothelial cells derived from human induced-pluripotent stem cells); set-up: method as in PMID 28344002; settings: control substances, previously published experiments in the hiPSC-based BBB model; mean ± SEM; cited from earlier work
# [4] = set-up: method as in PMID 34575559; settings: in vivo in mice; cited from earlier work
molecule,measurement,setting,value
"CCCCCCCCCCCCOS(=O)(=O)[O-].[Na+] [SDS, Sodium Dodecyl Sulfate]",cell viability in comparison to untreated hiPS-BCECs,[1],0.37 ± 0.02%
H-DVQPPGLKVWSDPF-NH2 [phoenixin-14],passage across the hiPSC-derived BBB model,"[2]; 1 and 10 nMol, phoenixin-14 alone, in vitro",did not cross
same,clearance value,"[2]; 1 nMol phoenixin-14, hiPS-BCEC mono-culture, resulting from PC",6.83e-07 ± 1.39e-07 mL/min
same,permeability coefficient (PC),"[2]; 10 nMol phoenixin-14, hiPS-BCEC mono-culture, experiment 1 of 3",0.059 µm/min
same,permeability coefficient (PC),"[2]; 10 nMol phoenixin-14, hiPS-BCEC mono-culture, experiment 2 of 3",0.056 µm/min
same,permeability coefficient (PC),"[2]; 10 nMol phoenixin-14, hiPS-BCEC mono-culture, experiment 3 of 3",0.019 µm/min
same,clearance value,"[2]; 10 nMol phoenixin-14, hiPS-BCEC mono-culture, based on PC",1.779e-06 ± 8.17e-07 mL/min
Cn1c(=O)c2c(ncn2C)n(C)c1=O [caffeine],permeability coefficient (PC),[3],51.06 ± 9.90 µm/min
same,clearance value,[4],1.111e-05 mL/min
